Test: Inhibition of ERK phosphorylation at Thr202/Tyr204 residues in human ASPC1 cells harboring KRAS G12D mutant […] incubated for 24 hrs by ELISA
Type: cell-based
Details: ASPC1, 24 h

| Structure (SMILES) | IC50 |
| --- | --- |
| CC(C)(C)OC(=O)N1C[C@@H]2C[C@H]1CN2c1nc(OC2CCOCC2)nc2c(OCc3ccccc3)c(Br)c(C3CC3)cc12 | 0.015 µM |
| Cc1ncsc1-c1ccc(C2(NC(=O)[C@@H]3C[C@@H](O)CN3C(=O)[C@H](C(C)C)n3cc(-c4ccc(COc5c(-c6c(C)c(F)cc7c6cnn7C6CCCCO6)c(C6CC6)cc6c(N7C[C@@H]8C[C@H]7CN8C(=O)OC(C)(C)C)nc(OC7CCOCC7)nc56)cc4)nn3)CC2)cc1 (stereo partly drawn) | 0.007 µM |
| CCCCCCCCCCCCSc1nc(N2C[C@@H]3C[C@H]2CN3C(=O)OC(C)(C)C)c2cc(C3CC3)c(Br)c(OCc3ccccc3)c2n1 | 0.018 µM |
| CCSc1nc(N2C[C@@H]3C[C@H]2CN3C(=O)OC(C)(C)C)c2cc(C3CC3)c(Br)c(OCc3ccccc3)c2n1 | 0.026 µM |
| Cc1c(F)cc2c(cnn2C2CCCCO2)c1-c1c(C2CC2)cc2c(N3C[C@@H]4C[C@H]3CN4C(=O)OC(C)(C)C)nc(OC3COC3)nc2c1OCc1ccccc1 (stereo partly drawn) | 0.006 µM |
| Cc1c(F)cc2c(cnn2C2CCCCO2)c1-c1c(C2CC2)cc2c(N3C[C@@H]4C[C@H]3CN4C(=O)OC(C)(C)C)nc(OC3CCOCC3)nc2c1OCc1ccc(-c2cn([C@H](C(=O)N3C[C@H](O)C[C@H]3C(=O)N[C@H](CO)c3ccc(-c4ccnn4C)cc3)C(C)C)nn2)cc1 (stereo partly drawn) | 0.011 µM |
| CCSc1nc(N2C[C@@H]3C[C@H]2CN3C(=O)OC(C)(C)C)c2cc(I)c(Br)c(OCc3ccccc3)c2n1 | 0.017 µM |
| Cc1ncsc1-c1ccc([C@@H](CO)NC(=O)[C@@H]2C[C@@H](O)CN2C(=O)[C@H](C(C)C)n2cc(-c3ccc(COc4c(-c5c(C)c(F)cc6c5cnn6C5CCCCO5)c(C5CC5)cc5c(N6C[C@@H]7C[C@H]6CN7C(=O)OC(C)(C)C)nc(OC6CCOCC6)nc45)cc3)nn2)cc1 (stereo partly drawn) | 0.008 µM |
